Values after ≈ are worked out from the molar mass of the structure shown.
What was measured:
[1] = Compound solubility limit in the test medium; type: physicochemical; conditions: read-out: highest concentration accessible due to the compound solubility
Description: Maintenance of genome integrity is essential for homeostasis and survival as impaired DNA damage response may predispose to grave pathologies such as neurodegenerative and immunodeficiency syndromes, cancer and premature aging (Mistrik et al., 2009). The potential effect of compound 12 on stimulation of DNA breakage was thus further estimated through analysis of phosphorylated histone H2AX (gamma-H2AX) quantified by optimized automated single-cell image analysis (Mistrik et al., 2009). The compound 12 was tested in concentration of 100 μM, the highest concentration accessible due to the compound solubility. Induction of DNA breakage was tested using human U2OS cells. The U2OS cells were cultivated at standard cultivation condition (37° C., 5% CO2). As a positive control, cells were irradiated by roentgen radiation (Baltobloc) (0.5 Gy-2 Gy), one hour later fixed and stained for γ-H2AX, a well established marker of the DNA damage. Parallel samples were treated by compound 12 for 24 hours, fixed and also stained for γ-H2AX. Microscopy analysis followed by computer based signal quantification was performed as described previously (Mistrik et al., 2009).

CRE1/AHK4 = molecular target: T1, CRE1/AHK4 (Arabidopsis thaliana, UniProt Q9C5U0); test: Escherichia coli cytokinin receptor activation assay (CRE1/AHK4); type: cell-based; conditions: 10^−7 M-5×10^−5 M, compared to trans-zeatin, FIG. 1
T1 construct: expressed in transfected cells; host or cells: Escherichia coli strain KMI001
T1 sequence (Q9C5U0 whole entry): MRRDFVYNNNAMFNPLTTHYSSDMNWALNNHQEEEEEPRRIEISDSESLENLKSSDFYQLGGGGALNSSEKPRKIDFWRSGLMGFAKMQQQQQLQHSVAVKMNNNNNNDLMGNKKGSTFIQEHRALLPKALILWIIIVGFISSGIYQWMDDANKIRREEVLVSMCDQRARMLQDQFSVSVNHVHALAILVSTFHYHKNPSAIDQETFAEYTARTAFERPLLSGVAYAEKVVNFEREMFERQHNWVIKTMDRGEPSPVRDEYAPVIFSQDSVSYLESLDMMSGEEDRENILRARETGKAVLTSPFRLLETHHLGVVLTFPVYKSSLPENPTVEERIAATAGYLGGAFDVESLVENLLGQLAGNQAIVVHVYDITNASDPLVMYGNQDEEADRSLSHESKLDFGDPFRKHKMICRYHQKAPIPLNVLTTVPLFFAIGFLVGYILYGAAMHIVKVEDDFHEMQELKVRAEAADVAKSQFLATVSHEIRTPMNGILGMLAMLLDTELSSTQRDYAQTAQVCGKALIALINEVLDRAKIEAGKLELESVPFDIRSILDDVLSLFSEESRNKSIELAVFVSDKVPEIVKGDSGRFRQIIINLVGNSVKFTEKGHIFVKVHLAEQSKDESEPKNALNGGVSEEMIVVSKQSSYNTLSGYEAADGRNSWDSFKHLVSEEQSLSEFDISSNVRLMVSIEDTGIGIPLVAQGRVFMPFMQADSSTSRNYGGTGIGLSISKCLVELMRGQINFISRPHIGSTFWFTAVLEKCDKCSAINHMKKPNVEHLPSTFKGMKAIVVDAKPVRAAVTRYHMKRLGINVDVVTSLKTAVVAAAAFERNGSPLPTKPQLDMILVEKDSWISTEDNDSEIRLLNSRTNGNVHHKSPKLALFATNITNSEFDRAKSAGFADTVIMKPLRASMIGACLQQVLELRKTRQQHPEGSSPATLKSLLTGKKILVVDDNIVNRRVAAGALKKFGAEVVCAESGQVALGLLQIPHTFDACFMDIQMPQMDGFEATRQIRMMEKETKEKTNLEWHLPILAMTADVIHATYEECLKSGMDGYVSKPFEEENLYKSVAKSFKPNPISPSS
Procedure: (§1) Escherichia coli strains KMI001 harbouring the plasmid pIN-III-AHK4 or pSTV28-AHK3 were grown overnight at 25° C. in M9 media enriched with 0.1% casamino acids to OD600˜1. The preculture was diluted 1:600 in 1 ml M9 medium containing 0.1% casamino acids and 1 μL stock solution of either the tested compound (10^−7 M-5×10^−5 M) or solvent control (DMSO, ethanol, methanol) were added. The cultures were further grown at 25° C. in microtiter plate, 200 μL per well. […] The cultures were centrifuged and 50 μL aliquots of the supernatant were transferred to microtiter plate containing 2 μL 50 mM 4-methyl umbelliferyl galactoside which was subsequently incubated for 1 h at 37° C. The reaction was stopped by adding 100 μL 0.2 M Na2CO3. Fluorescence was measured using a Fluoroscan Ascent (Labsystems, Finland) at the excitation and emission wavelengths of 365 and 460 nm, respectively. The OD600 of remaining culture was determined and β-galactosidase activity was calculated as nmol 4-methylumbelliferone×OD600^−1×h^−1.

AHK3 = molecular target: T2, AHK3 (Arabidopsis thaliana, UniProt Q9C5U1); test: Escherichia coli cytokinin receptor activation assay (AHK3); type: cell-based; conditions: 10^−7 M-5×10^−5 M, compared to trans-zeatin, FIG. 1
T2 construct: expressed in transfected cells; host or cells: Escherichia coli strain KMI001
T2 sequence (Q9C5U1 1-1036): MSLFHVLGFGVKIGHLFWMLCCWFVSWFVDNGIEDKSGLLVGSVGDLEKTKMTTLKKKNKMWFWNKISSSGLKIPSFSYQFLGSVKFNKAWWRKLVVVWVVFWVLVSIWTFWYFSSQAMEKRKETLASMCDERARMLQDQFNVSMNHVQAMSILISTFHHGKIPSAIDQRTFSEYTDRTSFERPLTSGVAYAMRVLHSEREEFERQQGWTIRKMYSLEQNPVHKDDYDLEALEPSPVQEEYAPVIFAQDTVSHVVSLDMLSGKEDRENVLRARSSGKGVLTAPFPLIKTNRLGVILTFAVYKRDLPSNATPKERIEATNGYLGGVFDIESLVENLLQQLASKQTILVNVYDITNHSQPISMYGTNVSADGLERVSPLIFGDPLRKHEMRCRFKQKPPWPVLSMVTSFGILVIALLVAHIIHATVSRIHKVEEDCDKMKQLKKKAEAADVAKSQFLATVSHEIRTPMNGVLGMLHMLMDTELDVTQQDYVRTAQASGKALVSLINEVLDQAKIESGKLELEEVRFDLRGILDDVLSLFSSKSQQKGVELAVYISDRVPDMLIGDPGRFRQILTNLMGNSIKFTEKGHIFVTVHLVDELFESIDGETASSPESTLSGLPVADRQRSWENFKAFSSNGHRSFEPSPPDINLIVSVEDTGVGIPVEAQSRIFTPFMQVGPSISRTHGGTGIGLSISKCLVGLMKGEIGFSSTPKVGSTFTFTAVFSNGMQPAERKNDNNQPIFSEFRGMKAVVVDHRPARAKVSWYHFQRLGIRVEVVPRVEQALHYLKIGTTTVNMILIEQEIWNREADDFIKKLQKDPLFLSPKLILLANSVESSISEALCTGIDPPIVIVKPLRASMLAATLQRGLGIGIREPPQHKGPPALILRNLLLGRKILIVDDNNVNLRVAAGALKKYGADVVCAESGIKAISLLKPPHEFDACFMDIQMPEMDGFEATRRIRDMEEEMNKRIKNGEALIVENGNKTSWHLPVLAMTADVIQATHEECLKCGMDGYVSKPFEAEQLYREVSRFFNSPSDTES
Procedure: as §1

## COc1cccc(Nc2nc(Cl)nc3c2ncn3C2CCCCO2)c1 (stereo not drawn) [compound 12, 2-chloro-6-(3-methoxyanilino)-9-(tetrahydropyran-2-yl)purine]
[1]
  solubility: 100 µM (≈ 36 µg/mL)
CRE1/AHK4
  ability to activate cytokinin receptor CRE1/AHK4: very low ability to activate
AHK3
  ability to activate cytokinin receptor AHK3: very low ability to activate
